Source: ChEMBL document CHEMBL4368891, “Conformationally restricted quinazolone derivatives as PI3Kδ-selective inhibitors: the design, synthesis and biological evaluation” (Medchemcomm, 2019)
Active and inactive are the calls of the source. No cut-off for these calls is given here.

Assays:
[1] = molecular target: T1, Phosphatidylinositol 4,5-bisphosphate 3-kinase catalytic subunit delta isoform (Homo sapiens, UniProt O00329); test: Inhibition of PI3Kdelta (unknown origin) using PIP2 as substrate after 2 hrs by ADP-Glo assay
T1 sequence (O00329 whole entry): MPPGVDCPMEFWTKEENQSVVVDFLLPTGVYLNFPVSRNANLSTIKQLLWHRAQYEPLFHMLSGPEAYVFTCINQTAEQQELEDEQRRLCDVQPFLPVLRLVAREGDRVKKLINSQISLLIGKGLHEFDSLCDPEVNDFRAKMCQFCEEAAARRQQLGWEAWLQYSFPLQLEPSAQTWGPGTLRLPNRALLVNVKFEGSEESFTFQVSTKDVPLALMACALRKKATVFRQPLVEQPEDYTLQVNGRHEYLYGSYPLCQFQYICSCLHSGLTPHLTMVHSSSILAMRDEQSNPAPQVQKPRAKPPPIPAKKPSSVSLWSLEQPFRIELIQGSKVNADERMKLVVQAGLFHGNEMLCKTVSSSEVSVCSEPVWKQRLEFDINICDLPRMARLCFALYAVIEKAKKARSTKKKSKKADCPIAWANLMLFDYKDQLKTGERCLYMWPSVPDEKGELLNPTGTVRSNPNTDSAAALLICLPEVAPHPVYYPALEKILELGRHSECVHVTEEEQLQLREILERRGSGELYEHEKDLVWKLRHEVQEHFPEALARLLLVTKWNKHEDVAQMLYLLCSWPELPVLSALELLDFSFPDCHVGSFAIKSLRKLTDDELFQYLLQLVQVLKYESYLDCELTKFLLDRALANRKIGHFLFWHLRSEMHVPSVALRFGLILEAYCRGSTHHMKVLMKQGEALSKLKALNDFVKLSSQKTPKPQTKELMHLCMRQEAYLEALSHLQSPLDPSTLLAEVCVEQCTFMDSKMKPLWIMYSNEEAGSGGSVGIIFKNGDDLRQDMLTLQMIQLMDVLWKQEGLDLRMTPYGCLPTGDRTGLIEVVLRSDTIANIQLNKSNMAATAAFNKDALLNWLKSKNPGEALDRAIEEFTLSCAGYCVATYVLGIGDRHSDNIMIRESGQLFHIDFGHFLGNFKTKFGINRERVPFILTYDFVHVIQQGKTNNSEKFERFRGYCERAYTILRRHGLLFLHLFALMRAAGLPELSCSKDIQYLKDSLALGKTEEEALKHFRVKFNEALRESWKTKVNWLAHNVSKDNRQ

SU-DHL-6 = test: Antiproliferative activity against human SU-DHL6 cells after 72 hrs by CellTiter-Glo luminescent cell viability assay; assay type: functional; settings: SU-DHL-6, 72 h
[2] = Half life in Sprague-Dawley rat at 10 mg/kg, po administered via gavage by LC-MS/MS analysis; assay type: ADME, organism-based; settings: in vivo
[3] = molecular target: Phosphatidylinositol 4,5-bisphosphate 3-kinase catalytic subunit alpha isoform (Homo sapiens, UniProt P42336); test: Inhibition of PI3Kalpha (unknown origin) using PIP2 as substrate after 2 hrs by ADP-Glo assay
[4] = molecular target: Phosphatidylinositol 4,5-bisphosphate 3-kinase catalytic subunit beta isoform (Homo sapiens, UniProt P42338); test: Inhibition of PI3Kbeta (unknown origin) using PIP2 as substrate after 2 hrs by ADP-Glo assay
[5] = molecular target: Phosphatidylinositol 4,5-bisphosphate 3-kinase catalytic subunit gamma isoform (Homo sapiens, UniProt P48736); test: Inhibition of PI3Kgamma (unknown origin) using PIP2 as substrate after 2 hrs by ADP-Glo assay
[6] = molecular target: T2, Phosphatidylinositol 4,5-bisphosphate 3-kinase catalytic subunit delta isoform (Homo sapiens) (UniProt O00329); test: Inhibition of PI3Kdelta in human SU-DHL6 cells assessed as reduction in Akt phosphorylation at S473 residue after 2 hrs by Western blot analysis; assay type: cell-based
T2 sequence (whole entry): T1 sequence (O00329 whole entry)

[7] = molecular target: T2, Phosphatidylinositol 4,5-bisphosphate 3-kinase catalytic subunit delta isoform (Homo sapiens); test: Inhibition of PI3Kdelta in human SU-DHL6 cells assessed as reduction in S6K1 phosphorylation at T389 residue after 2 hrs by Western blot analysis; assay type: cell-based
[8] = molecular target: T2, Phosphatidylinositol 4,5-bisphosphate 3-kinase catalytic subunit delta isoform (Homo sapiens); test: Inhibition of PI3Kdelta in human SU-DHL6 cells assessed as reduction in Akt phosphorylation at S473 residue at 100 nM after 2 hrs by Western blot analysis; assay type: cell-based
[9] = molecular target: T2, Phosphatidylinositol 4,5-bisphosphate 3-kinase catalytic subunit delta isoform (Homo sapiens); test: Inhibition of PI3Kdelta in human SU-DHL6 cells assessed as reduction in S6K1 phosphorylation at T389 residue a at 100 nM after 2 hrs by Western blot analysis; assay type: cell-based
[10] = AUC (0 to last) in Sprague-Dawley rat at 10 mg/kg, po administered via gavage by LC-MS/MS analysis; assay type: ADME, organism-based; set-up: dose 10 mg/kg, time 0 - last, route oral; settings: in vivo
[11] = human, microsomes
Description: Intrinsic clearance in liver by measuring in intrinsic clearance in human liver microsomes in presence of NADPH by LC-MS/MS analysis

[12] = rat, microsomes
Description: Intrinsic clearance in liver by measuring in intrinsic clearance in rat liver microsomes in presence of NADPH by LC-MS/MS analysis

in vitro [13] = settings: human, liver microsomes
Description: Half life in human liver microsomes in presence of NADPH by LC-MS/MS analysis

in vitro [14] = settings: human, liver microsomes; remark: listed apart in the source
Description: Intrinsic clearance in human liver microsomes assessed per mg protein in presence of NADPH by LC-MS/MS analysis

in vitro [15] = settings: human, liver microsomes; remark: listed apart in the source
Description: Metabolic stability in human liver microsomes assessed as compound remaining after 60 mins in presence of NADPH by LC-MS/MS analysis

in vitro [16] = settings: rat, liver microsomes
Description: Half life in rat liver microsomes in presence of NADPH by LC-MS/MS analysis

in vitro [17] = settings: rat, liver microsomes; remark: listed apart in the source
Description: Intrinsic clearance in rat liver microsomes assessed per mg protein in presence of NADPH by LC-MS/MS analysis

in vitro [18] = settings: rat, liver microsomes; remark: listed apart in the source
Description: Metabolic stability in rat liver microsomes assessed as compound remaining after 60 mins in presence of NADPH by LC-MS/MS analysis

Chain of Phosphatidylinositol 4,5-bisphosphate 3-kinase catalytic subunit beta isoform (P42338 whole entry, canonical isoform): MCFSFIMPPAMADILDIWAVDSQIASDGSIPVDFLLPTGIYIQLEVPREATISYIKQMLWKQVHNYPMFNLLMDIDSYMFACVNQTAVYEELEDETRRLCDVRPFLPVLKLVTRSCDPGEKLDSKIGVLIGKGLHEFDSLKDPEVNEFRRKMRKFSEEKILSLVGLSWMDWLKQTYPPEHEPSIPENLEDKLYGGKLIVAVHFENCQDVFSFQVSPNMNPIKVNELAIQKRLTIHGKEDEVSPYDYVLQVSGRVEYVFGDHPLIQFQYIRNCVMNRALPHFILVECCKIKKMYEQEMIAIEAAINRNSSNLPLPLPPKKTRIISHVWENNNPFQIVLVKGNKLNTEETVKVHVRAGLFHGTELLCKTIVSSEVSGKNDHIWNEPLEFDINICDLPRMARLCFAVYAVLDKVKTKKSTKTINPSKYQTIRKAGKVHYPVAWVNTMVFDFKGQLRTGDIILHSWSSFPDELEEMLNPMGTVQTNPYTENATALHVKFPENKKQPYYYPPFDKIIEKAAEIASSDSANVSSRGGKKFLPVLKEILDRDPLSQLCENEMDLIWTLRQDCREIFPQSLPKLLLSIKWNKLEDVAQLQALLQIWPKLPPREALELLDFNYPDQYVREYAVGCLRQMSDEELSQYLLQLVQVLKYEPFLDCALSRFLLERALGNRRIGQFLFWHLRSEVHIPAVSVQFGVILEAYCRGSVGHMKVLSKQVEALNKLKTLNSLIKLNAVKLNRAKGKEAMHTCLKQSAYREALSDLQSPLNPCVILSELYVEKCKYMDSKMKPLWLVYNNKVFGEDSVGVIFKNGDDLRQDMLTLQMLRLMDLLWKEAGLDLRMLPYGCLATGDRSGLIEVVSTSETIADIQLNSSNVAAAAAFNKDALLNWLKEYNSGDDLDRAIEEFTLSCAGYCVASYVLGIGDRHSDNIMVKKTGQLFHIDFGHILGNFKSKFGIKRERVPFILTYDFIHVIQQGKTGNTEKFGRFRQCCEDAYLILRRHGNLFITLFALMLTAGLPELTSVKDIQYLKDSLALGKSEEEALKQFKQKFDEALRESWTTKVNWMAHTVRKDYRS
Chain of Phosphatidylinositol 4,5-bisphosphate 3-kinase catalytic subunit alpha isoform (P42336 whole entry, canonical isoform): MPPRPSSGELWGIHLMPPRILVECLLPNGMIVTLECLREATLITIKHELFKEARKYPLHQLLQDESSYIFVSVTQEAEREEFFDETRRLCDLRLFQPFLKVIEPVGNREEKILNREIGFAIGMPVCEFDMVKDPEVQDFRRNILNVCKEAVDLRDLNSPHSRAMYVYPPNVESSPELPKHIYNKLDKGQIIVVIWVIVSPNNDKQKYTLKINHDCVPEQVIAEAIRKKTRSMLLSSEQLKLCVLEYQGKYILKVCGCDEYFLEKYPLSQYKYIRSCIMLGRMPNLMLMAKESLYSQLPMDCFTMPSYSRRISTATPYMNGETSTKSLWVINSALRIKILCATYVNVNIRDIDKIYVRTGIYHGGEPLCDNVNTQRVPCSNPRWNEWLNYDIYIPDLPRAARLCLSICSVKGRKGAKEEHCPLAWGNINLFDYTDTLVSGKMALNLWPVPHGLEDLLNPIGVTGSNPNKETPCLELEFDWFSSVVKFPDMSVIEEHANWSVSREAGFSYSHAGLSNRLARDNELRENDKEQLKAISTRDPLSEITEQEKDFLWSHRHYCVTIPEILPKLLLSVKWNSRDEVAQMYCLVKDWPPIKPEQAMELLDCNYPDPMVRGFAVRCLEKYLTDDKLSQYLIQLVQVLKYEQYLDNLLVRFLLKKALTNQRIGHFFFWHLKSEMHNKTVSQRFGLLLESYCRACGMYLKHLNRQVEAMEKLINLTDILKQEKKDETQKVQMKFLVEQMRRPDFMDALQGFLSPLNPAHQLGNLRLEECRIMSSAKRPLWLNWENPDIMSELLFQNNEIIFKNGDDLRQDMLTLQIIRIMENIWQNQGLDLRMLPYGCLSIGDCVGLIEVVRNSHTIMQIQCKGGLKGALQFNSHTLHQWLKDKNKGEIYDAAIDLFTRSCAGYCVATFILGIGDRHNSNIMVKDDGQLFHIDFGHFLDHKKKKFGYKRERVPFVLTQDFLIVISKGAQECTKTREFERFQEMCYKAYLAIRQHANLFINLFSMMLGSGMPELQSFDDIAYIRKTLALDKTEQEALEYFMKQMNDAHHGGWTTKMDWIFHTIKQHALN
Chain of Phosphatidylinositol 4,5-bisphosphate 3-kinase catalytic subunit gamma isoform (P48736 whole entry, canonical isoform): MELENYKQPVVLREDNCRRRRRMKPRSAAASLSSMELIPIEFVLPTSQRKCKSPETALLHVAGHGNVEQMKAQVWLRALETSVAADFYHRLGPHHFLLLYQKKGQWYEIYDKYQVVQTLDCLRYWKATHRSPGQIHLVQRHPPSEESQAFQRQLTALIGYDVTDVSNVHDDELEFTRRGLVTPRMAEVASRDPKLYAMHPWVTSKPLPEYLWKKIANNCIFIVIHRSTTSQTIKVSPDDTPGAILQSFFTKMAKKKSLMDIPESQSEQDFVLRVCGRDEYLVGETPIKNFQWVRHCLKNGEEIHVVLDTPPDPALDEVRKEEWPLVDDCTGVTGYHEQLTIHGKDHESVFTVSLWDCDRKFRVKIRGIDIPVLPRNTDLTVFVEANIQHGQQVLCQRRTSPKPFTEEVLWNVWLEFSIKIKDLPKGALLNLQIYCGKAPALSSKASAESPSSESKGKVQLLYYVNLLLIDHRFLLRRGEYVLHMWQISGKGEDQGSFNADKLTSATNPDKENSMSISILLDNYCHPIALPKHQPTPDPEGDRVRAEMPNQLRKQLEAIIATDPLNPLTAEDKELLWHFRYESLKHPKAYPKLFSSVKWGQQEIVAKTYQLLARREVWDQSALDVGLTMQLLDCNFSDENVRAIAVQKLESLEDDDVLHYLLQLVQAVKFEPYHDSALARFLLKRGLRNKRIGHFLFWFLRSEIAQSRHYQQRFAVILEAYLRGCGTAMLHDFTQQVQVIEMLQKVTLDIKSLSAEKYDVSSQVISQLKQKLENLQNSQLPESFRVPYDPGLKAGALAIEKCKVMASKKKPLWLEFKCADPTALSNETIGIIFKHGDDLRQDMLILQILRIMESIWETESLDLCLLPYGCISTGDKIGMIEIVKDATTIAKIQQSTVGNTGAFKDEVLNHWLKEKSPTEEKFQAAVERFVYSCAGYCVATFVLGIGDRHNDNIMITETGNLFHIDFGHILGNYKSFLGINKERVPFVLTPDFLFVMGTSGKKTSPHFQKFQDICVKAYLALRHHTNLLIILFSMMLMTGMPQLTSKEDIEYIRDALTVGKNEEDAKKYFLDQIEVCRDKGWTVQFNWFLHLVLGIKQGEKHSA

Structure (SMILES): O=c1c2c(F)cccc2nc([C@@H]2CCCN2c2nc(F)nc3[nH]cnc23)n1Cc1ccccc1
- IC50 [1]: 91 nM
- GI50 (SU-DHL-6): 380 nM

Structure (SMILES): N#Cc1c(N)ncnc1N1CCC[C@H]1c1nc2cccc(F)c2c(=O)n1C1CCCC1
- half-life [2]: 246 min
- IC50 [1]: 6.3 nM
- GI50 (SU-DHL-6): 210 nM
- IC50 [3]: 8590 nM
- IC50 [4]: 1550 nM
- IC50 [5]: 354 nM
- inhibition [6]: Dose-dependent effect
- inhibition [7]: Dose-dependent effect
- inhibition [8]: Active
- inhibition [9]: Active
- AUC(0-t) [10]: 50.8 ng·h/mL
- CLH [11]: 0.0713 mL/min/kg
- CLH [12]: 0.1651 mL/min/kg
- half-life (in vitro [13]): 17.5 min
- microsomal CLint (in vitro [14]): 79.2 µL/min/mg
- remaining at 1 h (in vitro [15]): 9.1%
- half-life (in vitro [16]): 15.1 min
- microsomal CLint (in vitro [17]): 91.7 µL/min/mg
- remaining at 1 h (in vitro [18]): 6.2%

Structure (SMILES): O=c1c2c(F)cccc2nc([C@@H]2CCCN2c2ncnc3[nH]cnc23)n1Cc1ccccc1
- IC50 [1]: 58 nM
- GI50 (SU-DHL-6): 480 nM

Structure (SMILES): O=c1c2c(F)cccc2nc([C@@H]2CCCN2c2ncnc3[nH]cnc23)n1C1CCC1
- IC50 [1]: 635 nM
- GI50 (SU-DHL-6): 630 nM

Structure (SMILES): O=c1c2ccccc2nc([C@@H]2CCCN2c2ncnc3[nH]cnc23)n1Cc1ccccc1
- IC50 [1]: 498 nM
- GI50 (SU-DHL-6): 580 nM

Structure (SMILES): N#Cc1c(N)ncnc1N1CCC[C@H]1c1nc2cccc(F)c2c(=O)n1Cc1ccccc1
- IC50 [1]: 22 nM
- GI50 (SU-DHL-6): 330 nM
- IC50 [3]: 4940 nM
- IC50 [4]: 6240 nM
- IC50 [5]: 587 nM
- CLH [11]: 0.0401 mL/min/kg
- CLH [12]: 1.5571 mL/min/kg
- half-life (in vitro [13]): 31.1 min
- microsomal CLint (in vitro [14]): 44.6 µL/min/mg
- remaining at 1 h (in vitro [15]): 25.5%
- half-life (in vitro [16]): 1.6 min
- microsomal CLint (in vitro [17]): 865 µL/min/mg
- remaining at 1 h (in vitro [18]): 0.1%

Structure (SMILES): O=c1c2c(F)cccc2nc([C@@H]2CCCN2c2ncnc3[nH]cnc23)n1C1CCCC1
- IC50 [1]: 38 nM
- GI50 (SU-DHL-6): 2650 nM

Structure (SMILES): CC[C@H](Nc1ncnc2[nH]cnc12)c1nc2cccc(F)c2c(=O)n1-c1ccccc1 [IDELALISIB]
- GI50 (SU-DHL-6): 20 nM

Structure (SMILES): C[C@]12CC[C@H]3[C@@H](CCC4=CC(=O)CC[C@@]43C)[C@@H]1CC[C@@H]2O [TESTOSTERONE]
- CLH [11]: 0.0911 mL/min/kg
- CLH [12]: 3.7756 mL/min/kg

Structure (SMILES): CCCCn1c([C@@H]2CCCN2c2ncnc3[nH]cnc23)nc2cccc(F)c2c1=O
- IC50 [1]: 42 nM
- GI50 (SU-DHL-6): 640 nM

Structure (SMILES): O=C(O)Cc1ccccc1Nc1c(Cl)cccc1Cl [DICLOFENAC]
- CLH [12]: 0.143 mL/min/kg

Structure (SMILES): O=c1c2c(F)cccc2nc([C@@H]2CCCN2c2ncnc3[nH]cnc23)n1C1CCCCC1
- IC50 [1]: 33 nM
- GI50 (SU-DHL-6): 510 nM

Structure (SMILES): O=c1c2c(F)cccc2nc([C@@H]2CCCN2c2nc(F)nc3[nH]cnc23)n1C1CCCC1
- IC50 [1]: 178 nM
- GI50 (SU-DHL-6): 1890 nM
